Our source for the AC50 values is PubChem BioAssay AID720611 (Broad Institute, 2013).

This assay has as its system SNB-19 viability, CellTiter-Glo ATP luminescence, 8-48 h. Description: cytotoxicity in SNB-19 cells – cell-based, CellTiter-Glo ATP luminescence, 8-48 h, dry powder, mechanism study for HRAS target identification, late-stage follow-up (AID 720611). Background: In ATP-based viability assays light output follows the ATP content of the culture.

The term AC50 denotes the concentration at which the activity in the assay is half-maximal. A lower AC50 goes with activity at low concentration.

On to `CC(C)(C)OC(=O)NCCOCCOCCOc1ccc(N(C(=O)CCl)C(C(=O)NCCc2ccccc2)c2cccs2)cc1Cl` (centres undefined), for which the AC50 by setting is: (measured here: 8 h treatment) 1.41 µM; (measured here: 24 h treatment) 2.5 µM; (measured here: 48 h treatment) 1.45 µM.
In the same order, the values of `C#CCCCC(=O)NCCOCCOCCOc1ccc(N(C(=O)CCl)C(C(=O)NCCc2ccccc2)c2cccs2)cc1Cl` (centres undefined) are 5.75 µM, 4.27 µM and 3.6 µM.
In the same order, the values of `COc1ccc(N(C(=O)CCl)C(C(=O)NCCc2ccccc2)c2cccs2)cc1Cl` (centres undefined) are 0.978 µM, 1.3 µM and 1.25 µM.
